This assay concerns mollusks. Put plainly: Exposure of mollusks in the water-monitoring system to toxicant-loaded water; shell gape and Degree of Alarm (DOA). Type of assay: in vivo. How it is done:
Further calibration of the system is performed after one or more mollusk chambers are properly installed. The digital circuitry or computer 39 then monitors the gape of the mollusk during approximately the first three days after installation. From the gape values derived during this period, the computer derives a natural maximum gape value for the individual mollusk. Subsequent calculations based on output from the mollusk chamber 15 are based on the percentage of gape, i.e., the percentage of the maximum gape output value that the presently detected gape output value represents.
When the system 3 contains a number of mollusk chambers 15, the individual mollusk percentage gape data for all of the mollusks of the system is totaled, and the average percentage gape value calculated periodically per sampling interval by computer 38. This mean data value Gi is the variable used as the mollusk output data for determining if toxicants are present in the water being screened.
In the present specification, Gi means the current average mollusk gape data, Gi−1 means the most recent earlier mollusk output value, Gi−2 the next earlier mollusk output variable, etc. The oldest of the gape values is Gi−n+1. Preferably, the set of data values Gi−n+1 to Gi are stored in a FIFO (first-in, first-out) stack data structure in the computer doing the analysis. The stack acts as a shift register, shifting earlier data values as the new data value Gi is acquired. Preferably the value of n is 30, and the data values G are acquired every half-second.
A variable referred to as Degree of Alarm (“DOA”) is derived from the mean mollusk output data using one of a variety of analysis formulae or methods, ranging from simpler models to more complex systems based on neural net technology that can identify the particular toxicant types that are present in the water and causing a reaction by the mollusks.
According to an aspect of the invention, the variance over time of the gape values is one of the best statistical indicators of the pumping of the mollusk. By the term variance, what is meant is a determination of the variability of the gape values from a mean value, which may be determined or expressed using a variety of functions. Particularly preferred, however, is the classical calculation of variance as: [formula]
wherein V is the mean variance in gape over a recent period of time, preferably 30 seconds, R is the mean regression of the gape over the period (regression herein meaning the slope of the best-fit line through the data values of the time period). M may be the traveling mean as defined above, or may be the mean gape taken over another longer period, preferably about one hour.
An implementation of this method is shown by the graphs of FIGS. 7 to 10. Water being screened by a system as described previously was loaded with sulphuric acid, resulting in a drop in pH as shown in the graph of FIG. 7.
An implementation of such a DOA method using a Logistic calculation, with a variance factor added for variances over 50, is illustrated by the graphs of FIGS. 12 to 16.
In this example, a system as in Example 3 was used, only the toxicant introduced was copper (as aqueous CuSO4), as shown in FIG. 17.

Molecules are shown by their SMILES.

As for `O=S(=O)(O)O` [sulphuric acid], the “DOA values (spike)” value (DOA=(V·|R|)/M, water loaded with sulphuric acid, before 200 minutes) is “greater than 100”. Also, the “average percentage gape of the mollusks” value (water loaded with sulphuric acid (drop in pH), shortly after 200 minutes) is given as “less than 10 % of the normal maximum”. In addition, under “water loaded with sulphuric acid, variance over ten most recent values spikes shortly before 200 minutes”, the “percentage gape when variance spikes” value amounted to 40%.

As to `O=S(=O)([O-])[O-].[Cu+2]` [copper, CuSO4], the DOA values result (Logistic calculation with variance factor, out of a possible 10, between 0.5 and 1.0 hours, copper concentration still relatively low) is given as “exceed 8”. Moreover, the “gape when DOA exceeded 8” value (copper (as aqueous CuSO4), between 0.5 and 1.0 hours) is recorded as 50%.

Regarding `[Cl-].[Na+]` [chloride, NaCl], the DOA output result (Logistic calculation with variance factor for variances over 50, at 0.5 hours, chloride concentration still relatively low) was “greater than 5”. For the setting “gradually increasing concentration of chloride (as aqueous NaCl)”, the “raw gape data, decreasing gape over time” value is “less than 40 % of normal maximum gape”.

These data come from patent US20040049353A1, “System and method for monitoring water using bivalve mollusks” (priority 2003, published 2004).
